Patent US8664257B2, “Oxygen-substituted 3-heteroaroylamino-propionic acid derivatives and their use as pharmaceuticals” (Sanofi, priority 2010, dated 2014)

Target: T1, Recombinant human cathepsin A (Homo sapiens, UniProt P10619)
T1 construct: Recombinant human cathepsin A (residues 29-480, with a C-terminal 10-His tag); 10-His (C); purchased R&D Systems 1049-SE
T1 sequence (P10619 29-312 limits assumed): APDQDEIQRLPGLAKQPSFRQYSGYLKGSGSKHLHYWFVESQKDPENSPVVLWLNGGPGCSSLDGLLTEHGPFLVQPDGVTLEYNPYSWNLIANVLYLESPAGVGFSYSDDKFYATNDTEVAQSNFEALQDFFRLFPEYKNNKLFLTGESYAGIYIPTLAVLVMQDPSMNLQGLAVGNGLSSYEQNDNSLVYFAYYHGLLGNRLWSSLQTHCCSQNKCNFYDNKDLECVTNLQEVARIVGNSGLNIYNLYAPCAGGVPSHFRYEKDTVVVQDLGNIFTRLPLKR
T1 sequence (P10619 327-480 limits assumed): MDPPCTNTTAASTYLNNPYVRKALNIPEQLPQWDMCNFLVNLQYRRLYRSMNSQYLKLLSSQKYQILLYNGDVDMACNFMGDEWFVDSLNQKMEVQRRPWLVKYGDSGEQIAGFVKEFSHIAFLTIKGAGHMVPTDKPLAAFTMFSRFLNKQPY
Test: Cathepsin A inhibitory activity
Type: biochemical
Conditions: pharmacological test "Cathepsin A inhibitory activity"; IC50 given as class A/B/C; read-out: Activity (2): Cathepsin A inhibitory activity, IC50 class
Method in brief: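 Read-out was microfluidic separation of cleaved vs. uncleaved Bodipy FL-bradykinin (2 μM), giving turnover, % inhibition and IC50. Compound and 833 ng/ml enzyme met for 15 min RT in pH 5.5 MES/DTT before substrate (15 min RT). The 29-480 His-tagged human enzyme was first activated by cathepsin L, then E-64 (10 μM).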

SMILES	IC50
Cc1cccc([C@H](CC(=O)O)NC(=O)c2cc(O)n(-c3ccccc3Cl)n2)c1 [Example 217]	0.1 to 1 µM
O=C(O)CC(NC(=O)c1cc(O)n(-c2cccc(Cl)c2)n1)c1cccc(C(F)(F)F)c1Cl (stereo not drawn) [Example 263]	0.1 to 1 µM
COc1cccc([C@H](CC(=O)O)NC(=O)c2cc(O)n(-c3ccc(F)cc3F)n2)c1OC [Example 189]	0.1 to 1 µM
O=C(O)CC(NC(=O)c1cc(O)n(-c2ccccc2F)n1)c1ccc(-c2cccc(F)c2)cc1 (stereo not drawn) [Example 242]	0.1 to 1 µM
Cc1ccccc1[C@H](CC(=O)O)NC(=O)c1cc(O)n(-c2cccnc2)n1 [Example 143]	1 to 30 µM
O=C(O)CC(NC(=O)c1cc(O)n(-c2ccccc2F)n1)c1cccc(OCc2ccccc2)c1 (stereo not drawn) [Example 229]	1 to 30 µM
O=C(O)C[C@H](NC(=O)c1cc(O)n(-c2ccccc2)n1)c1cccc(Cl)c1Cl [Example 164]	< 0.1 µM

Same assay, conditions: read-out: Activity (2): Cathepsin A inhibitory activity (IC50 class)

SMILES	IC50
COc1cc(C(=O)N[C@@H](CC(=O)O)c2ccccc2F)nn1-c1ccccc1F [Example 679]	0.1 to 1 µM
CC(C)(C)[C@@H](O)COc1cc(C(=O)N[C@@H](CC(=O)O)c2cccc(Cl)c2Cl)nn1-c1ccccc1F [Example 776, (S)-3-(2,3-Dichloro-phenyl)-3-{[1-(2-fluoro-phenyl)-5-((R)-2-hydroxy-3,3-dimethyl-butoxy)-1H-pyrazole-3-carbonyl]-amino}-propionic acid]	< 0.1 µM
Cc1ccccc1[C@H](CC(=O)O)NC(=O)c1cc(OCCN2CCCC2=O)n(-c2ccccc2F)n1 [Example 639]	< 0.1 µM
Cc1ccccc1[C@H](CC(=O)O)NC(=O)c1cc(OC[C@@H](O)C(C)(C)C)n(-c2ccccc2F)n1 [Example 746, (S)-3-{[1-(2-Fluoro-phenyl)-5-((S)-2-hydroxy-3,3-dimethyl-butoxy)-1H-pyrazole-3-carbonyl]-amino}-3-o-tolyl-propionic acid]	< 0.1 µM
Cc1ccc([C@H](CC(=O)O)NC(=O)c2cc(OCC(=O)C(C)(C)C)n(-c3ccccc3F)n2)cc1 [Example 791, (S)-3-{[5-(3,3-Dimethyl-2-oxo-butoxy)-1-(2-fluoro-phenyl)-1H-pyrazole-3-carbonyl]-amino}-3-p-tolyl-propionic acid]	< 0.1 µM
CC(C)(C)C(=O)COc1cc(C(=O)N[C@@H](CC(=O)O)c2ccccc2Cl)nn1-c1ccccc1F [Example 777, (S)-3-(2-Chloro-phenyl)-3-{[5-(3,3-dimethyl-2-oxo-butoxy)-1-(2-fluoro-phenyl)-1H-pyrazole-3-carbonyl]-amino}-propionic acid]	< 0.1 µM
Cc1ccccc1[C@H](CC(=O)O)NC(=O)c1cc(OCC2CCCCC2)n(-c2ccccc2F)n1 [Example 638]	< 0.1 µM
Cc1c(F)cccc1C(CC(=O)O)NC(=O)c1cc(OCC2CC2)n(-c2ccccc2F)n1 (stereo not drawn) [Example 684, 3-{[5-Cyclopropylmethoxy-1-(2-fluoro-phenyl)-1H-pyrazole-3-carbonyl]-amino}-3-(3-fluoro-2-methyl-phenyl)-propionic acid]	< 0.1 µM
COc1ccccc1[C@H](CC(=O)O)NC(=O)c1cc(OC[C@@](C)(O)C(C)C)n(-c2ccccc2F)n1 [Example 783, (S)-3-{[1-(2-Fluoro-phenyl)-5-((S)-2-hydroxy-2,3-dimethyl-butoxy)-1H-pyrazole-3-carbonyl]-amino}-3-(2-methoxy-phenyl)-propionic acid]	< 0.1 µM
Cc1ccccc1C(CC(=O)O)NC(=O)c1nn(-c2ccccc2F)c(O)c1C (stereo not drawn) [Example 592]	0.1 to 1 µM
Cc1ccccc1[C@H](CC(=O)O)NC(=O)c1cc(OC(=O)N(C)C)n(-c2ccccc2F)n1 [Example 614]	< 0.1 µM
Cc1ccccc1[C@H](CC(=O)O)NC(=O)c1cc(OC[C@](C)(O)C(C)(C)C)n(-c2ccccc2F)n1 (single isomer, unassigned) [Example 747]	< 0.1 µM

Same assay, conditions: read-out: Activity (2): Cathepsin A inhibitory activity, IC50 class

SMILES	IC50
O=C(O)CC(NC(=O)c1cc(O)n(-c2ccc(Cl)cc2)n1)c1ccc(F)cc1 (stereo not drawn) [Example 73, 3-{[1-(4-Chloro-phenyl)-5-hydroxy-1H-pyrazole-3-carbonyl]-amino}-3-(4-fluoro-phenyl)-propionic acid]	1 to 30 µM
O=C(O)C[C@H](NC(=O)c1cc(O)n(-c2ccccc2Cl)n1)c1ccccc1F [Example 107]	0.1 to 1 µM
COc1ccc(C(CC(=O)O)NC(=O)c2cc(O)n(-c3ccccc3)n2)c(F)c1 (stereo not drawn) [Example 92]	0.1 to 1 µM
COc1ccccc1[C@H](CC(=O)O)NC(=O)c1cc(O)n(-c2ccccc2)n1 [Example 100]	0.1 to 1 µM
Cc1ccccc1[C@H](CC(=O)O)NC(=O)c1cc(OC[C@](C)(O)C(C)C)n(-c2ccccc2F)n1 [Example 857, (S)-3-{[1-(2-Fluoro-phenyl)-5-((R)-2-hydroxy-2,3-dimethyl-butoxy)-1H-pyrazole-3-carbonyl]-amino}-3-o-tolyl-propionic acid]	< 0.1 µM
CC(C)(C)Oc1ccc(C(CC(=O)O)NC(=O)c2cc(O)n(-c3ccccc3)n2)cc1 (stereo not drawn) [Example 23]	1 to 30 µM
COc1ccc([C@H](CC(=O)O)NC(=O)c2cc(O)n(-c3ccccc3)n2)cc1 [Example 374]	0.1 to 1 µM
Cc1ccc(C)c(-n2nc(C(=O)NC(CC(=O)O)c3ccc(CC(C)C)cc3)cc2O)c1 (stereo not drawn) [Example 46]	1 to 30 µM
Cc1cc(C)cc(-n2nc(C(=O)NC(CC(=O)O)c3ccccc3C)cc2O)c1 (stereo not drawn) [Example 78]	1 to 30 µM
Cc1ccc(C)c(-n2nc(C(=O)NC(CC(=O)O)c3ccc(Cl)c(Cl)c3)cc2O)c1 (stereo not drawn) [Example 48]	1 to 30 µM
O=C(O)C[C@H](NC(=O)c1cc(O)n(-c2ccccc2F)n1)c1c(F)cccc1F [Example 125]	0.1 to 1 µM
COc1ccc(C(CC(=O)O)NC(=O)c2cc(O)n(-c3ccc(F)cc3)n2)c(Cl)c1 (stereo not drawn) [Example 345]	0.1 to 1 µM
O=C(O)C[C@H](NC(=O)c1cc(O)n(-c2ccc(F)cc2)n1)c1ccc(Cl)cc1 [Example 369]	0.1 to 1 µM
COc1ccc(C(CC(=O)O)NC(=O)c2cc(O)n(-c3ccccc3F)n2)c(C)c1 (stereo not drawn) [Example 395]	0.1 to 1 µM
O=C(O)CC(NC(=O)c1cc(O)n(-c2cccc(F)c2)n1)c1cccc(Cl)c1 (stereo not drawn) [Example 301]	0.1 to 1 µM
CC(C)(C)Oc1cccc(C(CC(=O)O)NC(=O)c2cc(O)n(-c3ccccc3)n2)c1 (stereo not drawn) [Example 6]	1 to 30 µM
O=C(O)CC(NC(=O)c1cc(O)n(-c2ccccc2)n1)c1cc(F)cc(F)c1 (stereo not drawn) [Example 70]	1 to 30 µM
O=C(O)C[C@H](NC(=O)c1cc(O)n(-c2ccccc2F)n1)c1ccccc1Br [Example 397]	< 0.1 µM
COc1ccc(Cl)cc1C(CC(=O)O)NC(=O)c1cc(O)n(-c2ccc(Cl)cc2)n1 (stereo not drawn) [Example 275]	1 to 30 µM
COc1ccc([C@H](CC(=O)O)NC(=O)c2cc(OC[C@@](C)(O)C(C)C)n(-c3ccccc3F)n2)cc1 [Example 840, (S)-3-{[1-(2-Fluoro-phenyl)-5-((S)-2-hydroxy-2,3-dimethyl-butoxy)-1H-pyrazole-3-carbonyl]-amino}-3-(4-methoxy-phenyl)-propionic acid]	1 to 30 µM
COc1ccc([C@H](CC(=O)O)NC(=O)c2cc(O)n(-c3ccccc3F)n2)cn1 [Example 136]	0.1 to 1 µM
COc1ccccc1[C@@H](NC(=O)c1cc(O)n(-c2ccc(Cl)cc2)n1)[C@@H](O)C(=O)O [Example 282]	1 to 30 µM
CC(C)[C@](C)(O)COc1cc(C(=O)NC(CC(=O)O)C2CCCCC2)nn1-c1ccccc1F (stereo partly drawn) [Example 803, 3-Cyclohexyl-3-{[1-(2-fluoro-phenyl)-5-((S)-2-hydroxy-2,3-dimethyl-butoxy)-1H-pyrazole-3-carbonyl]-amino}-propionic acid]	< 0.1 µM
CC(C)C(C)(O)COc1cc(C(=O)N[C@H](CC(=O)O)Cc2ccccc2)nn1-c1ccccc1F (stereo partly drawn) [Example 838, (S)-3-{[1-(2-Fluoro-phenyl)-5-(2-hydroxy-2,3-dimethyl-butoxy)-1H-pyrazole-3-carbonyl]-amino}-4-phenyl-butyric acid]	1 to 30 µM
Cc1ccc(C)c(-n2nc(C(=O)NC(CC(=O)O)c3cc(F)cc(F)c3)cc2O)c1 (stereo not drawn) [Example 56]	1 to 30 µM

Same assay, conditions: recombinant human cathepsin A 833 ng/ml, Bodipy FL-labeled bradykinin 2 μM, pH 5.5; read-out: CATH-A IC50

SMILES	IC50
Cc1ccccc1[C@H](CC(=O)O)NC(=O)c1cc(OC[C@](C)(O)C(C)(C)C)n(-c2ccccc2F)n1 (single isomer, unassigned) [Example 747]	0.0147 µM
CC(C)[C@](C)(O)COc1cc(C(=O)NC(CC(=O)O)C2CCCCC2)nn1-c1ccccc1F (stereo partly drawn) [Example 803, 3-Cyclohexyl-3-{[1-(2-fluoro-phenyl)-5-((S)-2-hydroxy-2,3-dimethyl-butoxy)-1H-pyrazole-3-carbonyl]-amino}-propionic acid]	0.0267 µM
O=C(O)CC(NC(=O)c1cc(O)n(-c2ccc(Cl)cc2)n1)c1cccc2c1OC(F)(F)O2 (stereo not drawn) [Example 471, 3-{[1-(4-Chloro-phenyl)-5-hydroxy-1H-pyrazole-3-carbonyl]-amino}-3-(2,2-difluoro-benzo[1,3]dioxol-4-yl)-propionic acid]	0.486 µM

Same assay, conditions: recombinant human cathepsin A; read-out: Activity (2): Cathepsin A inhibitory activity, IC50 class

SMILES	IC50
O=C(O)C[C@H](NC(=O)c1cc(O)n(-c2cccc(Cl)c2)n1)c1ccc(F)cc1 [Example 411]	1 to 30 µM
Cc1ccccc1[C@H](CC(=O)O)NC(=O)c1cc(O)n(Cc2ccccc2)n1 [Example 533]	0.1 to 1 µM
O=C(O)CC(NC(=O)c1cc(O)n(-c2cccc(F)c2)n1)c1cc(F)ccc1C(F)(F)F (stereo not drawn) [Example 486]	0.1 to 1 µM
O=C(O)CC(NC(=O)c1cc(O)n(-c2ccc(Cl)cc2)n1)c1cccc2c1OC(F)(F)O2 (stereo not drawn) [Example 471, 3-{[1-(4-Chloro-phenyl)-5-hydroxy-1H-pyrazole-3-carbonyl]-amino}-3-(2,2-difluoro-benzo[1,3]dioxol-4-yl)-propionic acid]	0.1 to 1 µM
